Data as given in US20250177576A1, “COMPOUNDS FOR THE MEASUREMENT OF THE OXYGEN CONCENTRATION” (Center for Neuromusculoskeletal Restorative Medicine Limited, priority 2022, published 2025).

Key:
Format in all cases: physicochemical
[1] = Oxygen quenching calibration (Stern-Volmer) in tetrahydrofuran; details: 10 μM in tetrahydrofuran
Method: The photoluminescence spectra of the Pt(ttiq)(acac) (10 μM) in tetrahydrofuran in different oxygen concentrations upon 500 nm photoexcitation is presented in FIG. 2A. The phosphorescence peak intensity (698 nm) increases while the oxygen level of the solution decreases, whereas the fluorescence (528 nm) remains independent of the oxygen level. The oxygen quenching of the phosphorescence may be interpreted using Stern-Volmer relationship, in which (I0/I=1+KSV·[O2]) where I: phosphorescence intensity; I0: phosphorescence intensity at 0% of oxygen; KSV: quencher coefficient; [O2]: oxygen concentration. The data of FIG. 2A are fitted with this relationship in FIG. 2B and thus the I0 could be estimated from the equation of (y=133.75801/(1+0.0371−x); adjusted R^2=0.98066). Therefore, a linear correlation of I0/I against [O2](y=1.10962+0.03545 x; adjusted R^2=0.99036) could be established as in FIG. 2C. Mathematically, the Stern-Volmer relationship could be further derived to (R0/R=1+KSV·[O2]) whereas the fluorescence peak intensity is a constant, and thus the R0 could be estimated from the equation of (y=2.04177/(1+0.03267−x); adjusted R^2=0.97785) in FIG. 2D. Similarly, a linear correlation of R0/R against [O2](y=1.07595+0.03165−x; adjusted R^2=0.98135) could be established as in FIG. 2E. In short, the linear correlation between the ratiometric photoluminescence signal and oxygen concentration (%) obtained from FIG. 2E may be utilized to analyze the oxygen content of a tetrahydrofuran sample without the concerns of concentration dependency and absolute intensity value.
The oxygen concentration (%) or partial pressure of solution samples were varied by O2/N2 gas-purging with a syringe needle and natural ventilation (or gradually adding sodium sulfite (Na2SO3) solution as an oxygen consuming chemical reagent). The instantaneous oxygen concentration (%) of aqueous samples (or oxygen partial pressure values of tetrahydrofuran solutions) at 293 K were measured using pre-calibrated FireSting®-GO2 oxygen meter (PyroScience) coupled with a TDIP15 temperature probe (PyroScience) and a fiber optic sensor (OXR430-OI, or OXSOLV for organic solvent measurement) (PyroScience). The photoluminescence signals of the nano-sensor solution at different oxygen concentrations (%) (or partial pressures) were then measured by the fluorescence spectrophotometer and confocal laser scanning microscope. The calibration curves were established using the signal intensity at 528 nm and 698 nm from the PL spectra, and integrated signals' intensity from customized green channel (507-609 nm) and red channel (657-740 nm) from the CLSM images.

[2] = Photoluminescence spectra in dichloromethane, oxygen-free vs ambient; details: 10 μM in dichloromethane, excitation 500 nm
Method: (§1) Proton and carbon NMR spectra were measured in CDCl3 on a Bruker AVANCE III 400 MHz NMR Spectrometer and tetramethylsilane (TMS) was exploited as an internal standard for calibrating the chemical shift. Electrospray Ionization Quadrupole-Time-of-Flight (ESI-Q-TOF) mass spectrometry was performed on an Agilent 6540 Liquid chromatography—ESI-Q-TOF Mass Spectrometer. UV/Vis absorption spectroscopy was performed on a Molecular Devices SpectraMax M2e in different solutions at 293 K. Fluorescence emission spectra were taken from a LS-55 fluorescence spectrophotometer (PerkinElmer) at 293 K.

[3] = PL spectra in water/tetrahydrofuran binary mixtures (aggregation, AIE/ACQ)
Method: as §1
In view of the co-planar chemical structure of Pt(ttiq)(acac), it was interesting to look for any aggregation induced emission (AIE) or aggregation caused quenching (ACQ) property. […] When the water fraction further increased to or above 80%, the mixture formed clearly observable precipitates in the cuvette.
In order to observe whether these nanoaggregates were still readily quenched by oxygen, the PL spectra of the nanoaggregates' solution with a fwater of 60% was compared before and after the deaeration.

fluorescence peak wavelength ([1]; excitation 500 nm): 528 nm | phosphorescence peak wavelength ([1]; excitation 500 nm): 698 nm | constant PL peak (fluorescence) wavelength ([2]; disregarding oxygen content): 528 nm | maximum phosphorescence intensity wavelength ([2]; oxygen-sensitive peak): 698 nm | water fraction at which clearly observable precipitates form ([3]; water/tetrahydrofuran mixture, 10 μM): ≥ 80%
Compound: CC(=O)C=C(C)[O][Pt][c]1c(-c2nccc3ccccc23)sc2ccsc12 [Pt(ttiq)(acac)]
quencher coefficient KSV from fit of PL intensity ratio (FIG. 2D) [1]: 0.03267 | slope of linear correlation I0/I against [O2] (FIG. 2C) [1]: 0.03545 | slope of linear correlation R0/R against [O2] (FIG. 2E calibration curve) [1]: 0.03165 | quencher coefficient KSV from fit of phosphorescence intensity (FIG. 2B) ([1]; vs oxygen partial pressure): 0.0371 | oxygen response of nanoaggregates ([3]; fwater 60%, before and after deaeration): still very responsive to the oxygen content | aggregation induced emission property ([3]; water fraction 0 to 70% in tetrahydrofuran, 10 μM, ambient, excitation 500 nm): AIE-active species in the region of 650-750 nm
